For 42 molecules, IC50 results are on record in patent publication US20260297109A1, “COMPOUNDS AS SUMO ACTIVATING ENZYME INHIBITORS” (WIGEN BIOMEDICINE TECHNOLOGY (SHANGHAI) CO., LTD., priority 2022, published 2026).

Structures are written as SMILES. Bounds are passed on as bounds.

The first test concerns the target T1, SAE (Homo sapiens, UniProt Q9UBT2).
T1 construct: endogenous in cells; host or cells: HCT116
T1 sequence (Q9UBT2 1-640): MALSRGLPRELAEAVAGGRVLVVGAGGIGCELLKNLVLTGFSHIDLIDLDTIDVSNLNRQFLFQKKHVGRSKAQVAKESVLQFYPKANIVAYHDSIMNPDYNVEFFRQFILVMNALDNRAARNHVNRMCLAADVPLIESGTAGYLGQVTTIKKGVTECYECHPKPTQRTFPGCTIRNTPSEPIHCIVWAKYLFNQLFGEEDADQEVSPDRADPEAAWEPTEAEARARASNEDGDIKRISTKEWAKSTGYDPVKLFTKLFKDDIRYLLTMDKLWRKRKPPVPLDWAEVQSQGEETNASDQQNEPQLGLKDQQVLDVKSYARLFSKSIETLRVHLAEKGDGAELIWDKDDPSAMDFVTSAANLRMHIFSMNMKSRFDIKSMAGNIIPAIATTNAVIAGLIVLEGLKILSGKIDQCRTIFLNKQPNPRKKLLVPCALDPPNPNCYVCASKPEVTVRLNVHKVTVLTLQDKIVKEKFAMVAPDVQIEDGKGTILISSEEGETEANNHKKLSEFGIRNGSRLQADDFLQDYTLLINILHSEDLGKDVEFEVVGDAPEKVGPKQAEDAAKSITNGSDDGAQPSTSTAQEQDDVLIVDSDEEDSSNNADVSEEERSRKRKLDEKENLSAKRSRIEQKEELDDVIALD
T1 sequence (Q9UBE0 1-346): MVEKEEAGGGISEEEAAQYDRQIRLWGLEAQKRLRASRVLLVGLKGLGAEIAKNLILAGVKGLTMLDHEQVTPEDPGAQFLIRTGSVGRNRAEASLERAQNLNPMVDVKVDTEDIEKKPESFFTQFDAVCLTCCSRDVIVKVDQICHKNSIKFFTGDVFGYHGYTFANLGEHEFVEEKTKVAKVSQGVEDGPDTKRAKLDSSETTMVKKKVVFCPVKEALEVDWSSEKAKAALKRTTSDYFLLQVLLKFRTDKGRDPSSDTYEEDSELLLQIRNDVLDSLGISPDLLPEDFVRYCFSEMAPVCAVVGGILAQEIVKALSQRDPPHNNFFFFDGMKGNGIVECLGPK
Kind of test: SUMO IF: in vitro inhibitory activity assay against SAE in HCT116 cells (SUMO-2/3 immunofluorescence). The test is classed as cell-based. The note with it: class symbols, 6 h at 37° C. In outline:
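HCT116 cells were treated with compound for 6 h at 37 °C, then PFA-fixed, Triton-permeabilised and BSA-blocked. They were stained overnight at 4 °C with anti-SUMO-2/3 (18H8) rabbit mAb (1:400), then with FITC anti-rabbit IgG (1:300). Fluorescence versus DMSO gave inhibition rate and IC50.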
In the case of `N#Cc1ccc2c(c1)[C@@]1(CCc3sc(C(=O)c4cncnc4N[C@H]4C[C@H](O)[C@@H](COS(N)(=O)=O)[C@@H]4F)cc31)OCC2` [Compound 752], the concentration for half-maximal inhibition (IC50) was not above 50 nM. Still for that read-out and setting: the same measure for `NS(=O)(=O)CC[C@H]1[C@H](F)[C@@H](Nc2ncncc2C(=O)c2cc3c(s2)CC[C@]32NCCc3ccc(Cl)cc32)C[C@@H]1O` [Compound 642]: 50 to 200 nM. Same read-out and setting: the same measure for `N#Cc1ccc2c(c1)[C@@]1(CCc3sc(C(=O)c4cncnc4N[C@H]4C[C@H](O)[C@@H](COS(N)(=O)=O)[C@@H]4F)cc31)NCC2` [Compound 138]: 50 to 200 nM.

`NS(=O)(=O)OC[C@H]1[C@H](F)[C@@H](Nc2ncncc2C(=O)c2cc3c(s2)COCC32NCCc3ccc(Cl)c(Cl)c32)C[C@@H]1O` (stereo partly drawn) [Compound 558] came in with a concentration for half-maximal inhibition (IC50) of 50 to 200 nM.

In turn, `NS(=O)(=O)OC[C@H]1[C@H](F)[C@@H](Nc2ncncc2C(=O)c2cc3c(s2)C=C[C@@]32NCCc3ccc(F)cc32)C[C@@H]1O` [Compound 345] yielded an IC50 of more than 200 nM.

For `NS(=O)(=O)OC[C@H]1[C@H](F)[C@@H](Nc2ncncc2C(=O)c2cc3c(s2)COC[C@]32NCCc3ccc(Cl)c(Cl)c32)C[C@@H]1O` [Compound 560], the concentration for half-maximal inhibition (IC50) fell in the range of 50 to 200 nM.

`NS(=O)(=O)OC[C@H]1[C@H](F)[C@@H](Nc2ncncc2C(=O)c2cc3c(s2)CCC32NCCc3cc(F)c(Cl)c(F)c32)C[C@@H]1O` (stereo partly drawn) [Compound 158] showed an IC50 of 50 to 200 nM. Still for that read-out and setting: then `NS(=O)(=O)CC[C@H]1[C@H](F)[C@@H](Nc2ncncc2C(=O)c2cc3c(s2)CC[C@@]32NCCc3ccc(Cl)cc32)C[C@@H]1O` [Compound 641], with more than 200 nM. On the same count and under the same terms, the same measure for `NS(=O)(=O)OC[C@H]1[C@H](F)[C@@H](Nc2ncncc2C(=O)c2cc3c(s2)COC[C@@]32NCCc3ccc(F)cc32)C[C@@H]1O` [Compound 101]: more than 200 nM. On the same count and under the same terms, then `NS(=O)(=O)OC[C@H]1[C@H](F)[C@@H](Nc2ncncc2C(=O)c2cc3c(s2)OCCC32NCCc3ccc(Cl)cc32)C[C@@H]1O` (stereo partly drawn) [Compound 122], with 50 to 200 nM; and `CC(C)N1Cc2sc(C(=O)c3cncnc3N[C@H]3C[C@H](O)[C@@H](COS(N)(=O)=O)[C@@H]3F)cc2[C@]2(C1)OCCc1ccc(F)cc12` [Compound 734], with not above 50 nM; and `CN1CCc2ccc(Cl)cc2[C@@]12CCCc1sc(C(=O)c3cncnc3N[C@H]3C[C@H](O)[C@@H](COS(N)(=O)=O)[C@@H]3F)cc12` [Compound 596], with 50 to 200 nM.

For `NS(=O)(=O)OC[C@H]1[C@H](F)[C@@H](Nc2ncncc2C(=O)c2cc3c(s2)CCC32NCC(=O)c3ccc(Cl)cc32)C[C@@H]1O` (stereo partly drawn) [Compound 167], the half-maximal inhibitory concentration (IC50) lay in the range of 50 to 200 nM. Still for that read-out and setting: the same measure for `NS(=O)(=O)OC[C@H]1[C@H](F)[C@@H](Nc2ncncc2C(=O)c2cc3c(s2)CCCC32NCCc3ccncc32)C[C@@H]1O` (stereo partly drawn) [Compound 118]: 50 to 200 nM.

`NS(=O)(=O)OC[C@H]1[C@H](F)[C@@H](Nc2ncncc2C(=O)c2cc3c(s2)C=CC[C@]32NCCc3ccc(Cl)cc32)C[C@@H]1O` [Compound 680] registered a half-inhibitory concentration (IC50) not above 50 nM. On the same count and under the same terms, the same measure for `Cc1sc(C(=O)c2cncnc2N[C@H]2C[C@H](O)[C@@H](COS(N)(=O)=O)[C@@H]2F)cc1C1NCCc2ccc(F)cc21` (stereo partly drawn) [Compound 235]: more than 200 nM.

The molecule `NS(=O)(=O)OC[C@H]1[C@H](F)[C@@H](Nc2ncncc2C(=O)c2cc3c(s2)CSC[C@@]32NCCc3ccccc32)C[C@@H]1O` [Compound 295] had a half-inhibitory concentration (IC50) of more than 200 nM. The molecule `[2H]C1(c2cc(C(=O)c3cncnc3N[C@H]3C[C@H](O)[C@@H](COS(N)(=O)=O)[C@@H]3F)sc2C)NCCc2ccc(Cl)cc21` (stereo partly drawn) [Compound 269] showed an IC50 of 50 to 200 nM. The same measure, in the same setting: the same measure for `CCN1Cc2sc(C(=O)c3cncnc3N[C@H]3C[C@H](O)[C@@H](COS(N)(=O)=O)[C@@H]3F)cc2C2(C1)NCCc1ccc(Cl)cc12` (stereo partly drawn) [Compound 645]: not above 50 nM.

`NS(=O)(=O)OC[C@H]1[C@H](F)[C@@H](Nc2ncncc2C(=O)c2cc3c(s2)CC[C@]32NC3(CC3)Cc3ccc(Cl)cc32)C[C@@H]1O` [Compound 705] returned a half-maximal inhibitory concentration (IC50) of 50 to 200 nM. `NS(=O)(=O)OC[C@H]1[C@H](F)[C@@H](Nc2ncncc2C(=O)c2cc3c(s2)OC[C@]32NCCc3ccc(F)cc32)C[C@@H]1O` [Compound 144]: the IC50 is 50 to 200 nM. The same measure, in the same setting: then `CC1=C[C@]2(NCCc3ccc(Cl)cc32)c2cc(C(=O)c3cncnc3N[C@H]3C[C@H](O)[C@@H](COS(N)(=O)=O)[C@@H]3F)sc21` [Compound 326], with not above 50 nM. In the case of `NS(=O)(=O)OC[C@H]1[C@H](F)[C@@H](Nc2ncncc2C(=O)c2cc3c(s2)CN(C2CC2)CC32OCCc3ccc(F)cc32)C[C@@H]1O` (stereo partly drawn) [Compound 738], the half-inhibitory concentration (IC50) was 50 to 200 nM. On the same count and under the same terms, the same measure for `NS(=O)(=O)OC[C@H]1[C@H](F)[C@@H](Nc2ncncc2C(=O)c2cc3c(s2)OCC32NCCc3ccc(F)cc32)C[C@@H]1O` (stereo partly drawn) [Compound 142]: more than 200 nM; for `NS(=O)(=O)OC[C@H]1[C@H](F)[C@@H](Nc2ncncc2C(=O)c2cc3c(s2)CCC[C@]32NC3(CC3)Cc3ccc(Cl)cc32)C[C@@H]1O` [Compound 684]: 50 to 200 nM; for `N#Cc1ccc2c(c1)[C@]1(CCCc3sc(C(=O)c4cncnc4N[C@H]4C[C@H](O)[C@@H](COS(N)(=O)=O)[C@@H]4F)cc31)OCC2` [Compound 715]: more than 200 nM. Same read-out and setting: the same measure for `NS(=O)(=O)OC[C@H]1[C@H](F)[C@@H](Nc2ncncc2C(=O)c2cc3c(s2)COCC32NCCc3ccc(Cl)cc32)C[C@@H]1O` (stereo partly drawn) [Compound 103]: 50 to 200 nM. Still for that read-out and setting: the same measure for `NS(=O)(=O)OC[C@H]1[C@H](F)[C@@H](Nc2ncncc2C(=O)c2cc3c(s2)CC[C@]32NCC3(CC3)c3ccc(Cl)cc32)C[C@@H]1O` [Compound 704]: 50 to 200 nM; for `NS(=O)(=O)OC[C@H]1[C@H](F)[C@@H](Nc2ncncc2C(=O)c2cc3c(s2)CSC[C@@]32NCCc3cnc(Cl)cc32)C[C@@H]1O` [Compound 607]: more than 200 nM. `NS(=O)(=O)OC[C@H]1[C@H](F)[C@@H](Nc2ncncc2C(=O)c2cc3c(s2)CCC[C@]32NCCc3ncc(Cl)cc32)C[C@@H]1O` [Compound 605]: the IC50 is not above 50 nM. Same read-out and setting: the same measure for `NS(=O)(=O)OC[C@H]1[C@H](F)[C@@H](Nc2ncncc2C(=O)c2cc3c(s2)COC[C@]32NCCc3ccc(F)cc32)C[C@@H]1O` [Compound 102]: 50 to 200 nM. In turn, `CC1(C)Cc2ccc(Cl)cc2[C@]2(CCCc3sc(C(=O)c4cncnc4N[C@H]4C[C@H](O)[C@@H](COS(N)(=O)=O)[C@@H]4F)cc32)N1` [Compound 1030] registered an IC50 of more than 200 nM. On the same count and under the same terms, the same measure for `NS(=O)(=O)OC[C@H]1[C@H](F)[C@@H](Nc2ncncc2C(=O)c2cc3c(s2)CC[C@]32NCCc3cc(Cl)c(F)cc32)C[C@@H]1O` [Compound 698]: not above 50 nM; for `NS(=O)(=O)OC[C@H]1[C@H](F)[C@@H](Nc2ncncc2C(=O)c2cc3c(s2)CCC[C@]32NCCc3ccc(C(F)(F)F)cc32)C[C@@H]1O` [Compound 669]: 50 to 200 nM; for `CC1=C[C@]2(NCCc3ccc(F)cc32)c2cc(C(=O)c3cncnc3N[C@H]3C[C@H](O)[C@@H](COS(N)(=O)=O)[C@@H]3F)sc21` [Compound 623]: 50 to 200 nM. In turn, `COc1cc2c(cc1Cl)C1(CCc3sc(C(=O)c4cncnc4N[C@H]4C[C@H](O)[C@@H](COS(N)(=O)=O)[C@@H]4F)cc31)NCC2` (stereo partly drawn) [Compound 157] came in with an IC50 of 50 to 200 nM. The same measure, in the same setting: then `Cc1sc(C(=O)c2cncnc2N[C@H]2C[C@H](O)[C@@H](COS(N)(=O)=O)[C@H]2F)cc1C1NCCc2cc(Cl)c(Cl)cc21` (stereo partly drawn) [Compound 247], with 50 to 200 nM. In turn, `CC1=CC2(NCCc3ccc(F)cc32)c2cc(C(=O)c3cncnc3N[C@H]3C[C@H](O)[C@@H](COS(N)(=O)=O)[C@@H]3F)sc21` (stereo partly drawn) [Compound 621] displayed a 50% inhibitory concentration (IC50) of 50 to 200 nM. The same measure, in the same setting: the same measure for `Cc1ccc2c(c1)[C@@]1(CCc3sc(C(=O)c4cncnc4N[C@H]4C[C@H](O)[C@@H](COS(N)(=O)=O)[C@@H]4F)cc31)NCC2` [Compound 687]: 50 to 200 nM. On the same count and under the same terms, then `NS(=O)(=O)OC[C@H]1[C@H](F)[C@@H](Nc2ncncc2C(=O)c2cc3c(s2)C(F)=C[C@@]32NCCc3ccc(F)cc32)C[C@@H]1O` [Compound 619], with more than 200 nM; and `Cc1sc(C(=O)c2cncnc2N[C@H]2C[C@H](O)[C@@H](CCS(N)(=O)=O)[C@@H]2F)cc1C1NCCc2ccc(Cl)cc21` (stereo partly drawn) [Compound 990], with more than 200 nM.

Still in this test, the particulars now being: numeric values, 6 h at 37° C.
With `NS(=O)(=O)OC[C@H]1[C@H](F)[C@@H](Nc2ncncc2C(=O)c2cc3c(s2)C=C[C@@]32NCCc3ccc(Cl)cc32)C[C@@H]1O` [Compound 343], the IC50 is more than 1000 nM.

The IC50 is the concentration that inhibits the measured activity by half. A low value points to higher potency.
